Results published in ChEMBL document CHEMBL5465560, “Selectivity Literature for EUbOPEN Chemogenomic Library” (2024).
Each block holds one compound with its values, some of them ahead of it.

Tests used:
[1] = biological target: Mitogen-activated protein kinase kinase kinase 20 (Homo sapiens) (UniProt Q9NYL2); assay: Selectivity interaction (KinomeScan (DiscoverX)) EUB0000666a MAP3K20; conditions: at 10 µM
[2] = biological target: Testis-specific serine/threonine-protein kinase 4 (Homo sapiens) (UniProt Q6SA08); assay: Selectivity interaction (Kinase panel (Eurofins)) EUB0001564a TSSK4; conditions: at 1 µM
[3] = biological target: LIM domain kinase 1 (Homo sapiens) (UniProt P53667); assay: Selectivity interaction (Upstate Kinase Profiler service (Millipore)) EUB0000056c LIMK1; conditions: at 1 µM
[4] = biological target: MAP kinase-interacting serine/threonine-protein kinase 2 (Homo sapiens, UniProt Q9HBH9); assay: Selectivity interaction (Kinase panel (Invitrogen)) EUB0000639a MKNK2; conditions: at 200 nM
[5] = biological target: T1, Tyrosine-protein kinase receptor TYRO3 (Homo sapiens) (UniProt Q06418); assay: Selectivity interaction (KinomeScan (DiscoverX)) EUB0000695a TYRO3; conditions: at 100 nM
T1 sequence (whole entry): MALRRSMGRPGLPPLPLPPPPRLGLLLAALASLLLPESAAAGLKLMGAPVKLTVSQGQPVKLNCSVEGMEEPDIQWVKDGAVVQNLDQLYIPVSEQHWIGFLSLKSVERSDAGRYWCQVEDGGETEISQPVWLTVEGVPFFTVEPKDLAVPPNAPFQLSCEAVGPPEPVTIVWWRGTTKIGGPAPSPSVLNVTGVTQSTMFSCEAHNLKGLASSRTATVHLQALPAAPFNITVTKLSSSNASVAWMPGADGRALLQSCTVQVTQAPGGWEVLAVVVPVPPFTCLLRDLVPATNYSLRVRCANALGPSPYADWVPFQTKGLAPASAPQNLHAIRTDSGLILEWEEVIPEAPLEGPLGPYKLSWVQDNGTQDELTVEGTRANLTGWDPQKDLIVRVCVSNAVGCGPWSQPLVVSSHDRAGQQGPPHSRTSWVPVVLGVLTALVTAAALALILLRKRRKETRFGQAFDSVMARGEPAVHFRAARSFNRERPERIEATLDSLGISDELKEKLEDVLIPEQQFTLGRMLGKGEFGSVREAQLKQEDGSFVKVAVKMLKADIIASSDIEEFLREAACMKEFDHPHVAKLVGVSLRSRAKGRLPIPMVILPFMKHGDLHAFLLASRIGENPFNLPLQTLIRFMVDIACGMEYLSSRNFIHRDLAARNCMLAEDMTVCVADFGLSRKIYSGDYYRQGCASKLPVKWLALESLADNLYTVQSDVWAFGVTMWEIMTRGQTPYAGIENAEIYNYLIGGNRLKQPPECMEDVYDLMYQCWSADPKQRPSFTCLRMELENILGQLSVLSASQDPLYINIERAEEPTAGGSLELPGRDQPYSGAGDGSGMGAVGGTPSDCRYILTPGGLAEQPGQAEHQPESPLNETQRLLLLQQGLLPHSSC

[6] = biological target: Homeodomain-interacting protein kinase 1 (Homo sapiens, UniProt Q86Z02); assay: Selectivity interaction (KinomeScan (DiscoverX)) EUB0001049a HIPK1; conditions: at 1 µM
[7] = biological target: T2, Receptor tyrosine-protein kinase erbB-4 (Homo sapiens, UniProt Q15303); assay: Selectivity interaction (Millipore kinase profiler) EUB0000124b ERBB4; conditions: at 10 µM
[8] = biological target: T3, Serine/threonine-protein kinase Nek9 (Homo sapiens) (UniProt Q8TD19); assay: Selectivity interaction (KinomeScan (DiscoverX)) EUB0000655a NEK9; conditions: at 10 µM
T3 sequence (whole entry): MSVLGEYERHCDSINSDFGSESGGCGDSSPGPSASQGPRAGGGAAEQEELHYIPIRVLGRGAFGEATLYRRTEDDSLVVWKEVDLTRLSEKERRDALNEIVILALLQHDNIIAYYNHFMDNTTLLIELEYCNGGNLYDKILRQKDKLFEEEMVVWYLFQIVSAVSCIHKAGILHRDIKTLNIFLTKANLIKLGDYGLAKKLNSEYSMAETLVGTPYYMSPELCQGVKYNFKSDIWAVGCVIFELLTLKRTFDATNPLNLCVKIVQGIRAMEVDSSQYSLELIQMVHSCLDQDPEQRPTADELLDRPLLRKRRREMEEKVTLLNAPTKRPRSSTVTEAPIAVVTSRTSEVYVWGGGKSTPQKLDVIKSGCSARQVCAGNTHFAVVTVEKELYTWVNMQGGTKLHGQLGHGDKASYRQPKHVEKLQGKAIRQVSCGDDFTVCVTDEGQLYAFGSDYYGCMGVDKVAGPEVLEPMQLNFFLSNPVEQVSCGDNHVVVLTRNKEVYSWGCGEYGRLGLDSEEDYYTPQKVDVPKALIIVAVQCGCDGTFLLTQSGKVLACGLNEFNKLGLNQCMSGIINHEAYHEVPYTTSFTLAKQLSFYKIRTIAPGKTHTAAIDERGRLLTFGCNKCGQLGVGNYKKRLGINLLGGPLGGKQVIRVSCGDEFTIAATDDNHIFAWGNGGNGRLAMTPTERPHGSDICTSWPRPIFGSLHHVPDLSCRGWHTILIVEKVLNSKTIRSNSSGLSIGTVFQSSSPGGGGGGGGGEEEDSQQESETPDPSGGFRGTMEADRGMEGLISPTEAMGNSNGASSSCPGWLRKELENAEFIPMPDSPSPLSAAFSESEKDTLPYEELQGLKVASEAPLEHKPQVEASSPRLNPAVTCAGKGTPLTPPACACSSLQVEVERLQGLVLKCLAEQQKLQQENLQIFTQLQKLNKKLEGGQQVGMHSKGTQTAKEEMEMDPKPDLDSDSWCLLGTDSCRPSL

[9] = biological target: T2, Receptor tyrosine-protein kinase erbB-4; assay: Selectivity interaction (KinomeScan (DiscoverX)) EUB0000045b ERBB4
[10] = biological target: Cyclin-dependent kinase 14 (Homo sapiens) (UniProt O94921); assay: Selectivity interaction (KinomeScan (DiscoverX)) EUB0001079a CDK14; conditions: at 1 µM
[11] = tested on: Epidermal growth factor receptor (Homo sapiens), P00533 [UNDEFINED MUTATION]; assay: Selectivity interaction (KinomeScan (DiscoverX)) EUB0001079a EGFR; conditions: at 1 µM
[12] = biological target: Insulin receptor-related protein (Homo sapiens) (UniProt P14616); conditions: at 10 µM
[13] = biological target: Ribosomal protein S6 kinase alpha-3 (Homo sapiens, UniProt P51812); assay: Selectivity interaction (ActivX KiNativ screen (ex vivo kinase selectivity in human PBMCs)) EUB0001619a RPS6KA3; format: cell-based; conditions: PBMC, at 1 µM
[14] = biological target: Fibroblast growth factor receptor 3 (Homo sapiens, UniProt P22607); assay: (§1) Selectivity interaction (KinomeScan (DiscoverX)) EUB0001619a FGFR3; conditions: at 1 µM
[15] = tested on: Fibroblast growth factor receptor 3 (Homo sapiens), P22607 [G697C]; assay: as §1; conditions: at 1 µM
Sequence of Fibroblast growth factor receptor 3 (Homo sapiens), P22607 [G697C] (P22607 whole entry G697C): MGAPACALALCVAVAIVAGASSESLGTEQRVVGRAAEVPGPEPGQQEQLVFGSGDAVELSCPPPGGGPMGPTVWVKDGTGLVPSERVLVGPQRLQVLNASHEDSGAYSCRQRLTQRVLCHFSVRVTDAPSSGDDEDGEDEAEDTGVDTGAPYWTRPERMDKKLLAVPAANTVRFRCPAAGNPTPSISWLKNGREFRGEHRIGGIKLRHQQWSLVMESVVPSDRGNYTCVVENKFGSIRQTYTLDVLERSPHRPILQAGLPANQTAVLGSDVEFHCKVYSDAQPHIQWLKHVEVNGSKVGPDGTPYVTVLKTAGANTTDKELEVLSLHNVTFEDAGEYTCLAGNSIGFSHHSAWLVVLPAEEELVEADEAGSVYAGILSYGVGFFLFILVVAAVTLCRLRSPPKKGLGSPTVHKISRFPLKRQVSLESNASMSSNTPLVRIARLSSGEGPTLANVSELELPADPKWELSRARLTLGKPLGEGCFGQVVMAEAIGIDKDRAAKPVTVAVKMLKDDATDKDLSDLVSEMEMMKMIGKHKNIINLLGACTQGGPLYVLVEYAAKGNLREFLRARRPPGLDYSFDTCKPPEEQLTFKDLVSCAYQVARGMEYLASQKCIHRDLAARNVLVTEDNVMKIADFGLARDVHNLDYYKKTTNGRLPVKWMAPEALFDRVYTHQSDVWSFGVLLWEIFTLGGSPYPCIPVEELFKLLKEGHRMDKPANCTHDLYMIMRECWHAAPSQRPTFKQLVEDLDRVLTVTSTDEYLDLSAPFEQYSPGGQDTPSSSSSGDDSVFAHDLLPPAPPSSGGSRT

T2 sequence (Q15303 whole entry): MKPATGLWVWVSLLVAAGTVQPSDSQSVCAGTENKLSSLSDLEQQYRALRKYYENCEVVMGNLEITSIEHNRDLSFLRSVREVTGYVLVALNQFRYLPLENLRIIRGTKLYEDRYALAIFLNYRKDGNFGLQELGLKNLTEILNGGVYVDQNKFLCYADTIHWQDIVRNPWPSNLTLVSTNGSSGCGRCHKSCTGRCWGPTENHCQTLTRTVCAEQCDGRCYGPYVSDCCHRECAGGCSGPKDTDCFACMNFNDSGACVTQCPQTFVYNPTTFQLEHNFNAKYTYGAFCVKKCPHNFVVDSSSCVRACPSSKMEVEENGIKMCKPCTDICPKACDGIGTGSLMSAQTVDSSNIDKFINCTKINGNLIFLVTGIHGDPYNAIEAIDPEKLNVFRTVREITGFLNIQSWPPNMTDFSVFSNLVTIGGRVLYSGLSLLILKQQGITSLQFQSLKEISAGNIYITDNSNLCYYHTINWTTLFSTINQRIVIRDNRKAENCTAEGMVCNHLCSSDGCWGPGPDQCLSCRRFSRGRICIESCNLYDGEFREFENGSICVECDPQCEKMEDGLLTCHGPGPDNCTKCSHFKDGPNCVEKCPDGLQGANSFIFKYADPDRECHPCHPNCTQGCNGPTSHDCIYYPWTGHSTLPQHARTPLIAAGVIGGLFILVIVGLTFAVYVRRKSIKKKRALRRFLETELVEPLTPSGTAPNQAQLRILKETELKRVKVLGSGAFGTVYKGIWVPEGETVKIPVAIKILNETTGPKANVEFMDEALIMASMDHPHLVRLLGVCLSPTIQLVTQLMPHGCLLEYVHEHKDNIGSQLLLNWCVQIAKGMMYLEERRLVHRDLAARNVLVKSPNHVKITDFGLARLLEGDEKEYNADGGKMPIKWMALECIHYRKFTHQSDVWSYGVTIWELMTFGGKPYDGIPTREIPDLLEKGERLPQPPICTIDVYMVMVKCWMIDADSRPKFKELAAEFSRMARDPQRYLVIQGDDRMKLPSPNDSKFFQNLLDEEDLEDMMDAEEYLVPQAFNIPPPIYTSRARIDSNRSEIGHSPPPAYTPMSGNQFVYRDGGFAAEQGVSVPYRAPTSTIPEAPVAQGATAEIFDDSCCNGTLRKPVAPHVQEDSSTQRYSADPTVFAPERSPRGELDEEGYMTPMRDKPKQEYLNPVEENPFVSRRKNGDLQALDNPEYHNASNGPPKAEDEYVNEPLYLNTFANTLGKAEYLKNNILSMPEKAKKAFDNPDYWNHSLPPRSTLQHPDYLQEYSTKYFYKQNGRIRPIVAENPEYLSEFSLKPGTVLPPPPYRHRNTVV
Sequence of LIM domain kinase 1 (Homo sapiens) (P53667 whole entry, looked up, the tested form may be a part): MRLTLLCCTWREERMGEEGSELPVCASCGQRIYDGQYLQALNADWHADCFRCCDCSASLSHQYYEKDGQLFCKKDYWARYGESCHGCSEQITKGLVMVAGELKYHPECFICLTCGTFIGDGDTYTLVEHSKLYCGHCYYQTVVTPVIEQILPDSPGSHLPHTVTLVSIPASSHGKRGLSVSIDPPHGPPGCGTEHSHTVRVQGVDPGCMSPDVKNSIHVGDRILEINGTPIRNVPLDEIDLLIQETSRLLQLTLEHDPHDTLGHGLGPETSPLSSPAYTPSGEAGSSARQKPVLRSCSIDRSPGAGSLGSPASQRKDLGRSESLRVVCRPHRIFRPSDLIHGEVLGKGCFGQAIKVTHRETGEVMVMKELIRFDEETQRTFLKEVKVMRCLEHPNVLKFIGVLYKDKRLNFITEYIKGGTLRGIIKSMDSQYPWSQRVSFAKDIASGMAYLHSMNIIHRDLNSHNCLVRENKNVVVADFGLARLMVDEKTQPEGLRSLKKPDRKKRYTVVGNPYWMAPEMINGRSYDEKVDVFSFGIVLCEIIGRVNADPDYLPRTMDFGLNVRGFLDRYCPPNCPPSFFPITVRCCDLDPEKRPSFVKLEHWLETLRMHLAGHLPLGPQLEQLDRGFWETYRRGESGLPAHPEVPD
Sequence of Cyclin-dependent kinase 14 (Homo sapiens) (O94921 whole entry): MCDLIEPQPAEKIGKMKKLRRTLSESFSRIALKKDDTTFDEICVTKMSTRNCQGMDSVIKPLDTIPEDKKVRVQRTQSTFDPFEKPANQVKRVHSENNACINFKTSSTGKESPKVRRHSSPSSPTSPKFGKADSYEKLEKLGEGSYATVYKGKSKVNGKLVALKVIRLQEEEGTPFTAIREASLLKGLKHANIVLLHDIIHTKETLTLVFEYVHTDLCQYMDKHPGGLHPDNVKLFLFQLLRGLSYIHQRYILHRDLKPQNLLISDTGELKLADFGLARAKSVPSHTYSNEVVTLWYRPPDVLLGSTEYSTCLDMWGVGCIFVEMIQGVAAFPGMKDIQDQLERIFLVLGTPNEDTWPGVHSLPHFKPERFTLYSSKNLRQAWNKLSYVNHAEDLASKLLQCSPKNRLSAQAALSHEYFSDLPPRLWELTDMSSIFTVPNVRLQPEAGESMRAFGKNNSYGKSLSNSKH
Sequence of Ribosomal protein S6 kinase alpha-3 (P51812 whole entry): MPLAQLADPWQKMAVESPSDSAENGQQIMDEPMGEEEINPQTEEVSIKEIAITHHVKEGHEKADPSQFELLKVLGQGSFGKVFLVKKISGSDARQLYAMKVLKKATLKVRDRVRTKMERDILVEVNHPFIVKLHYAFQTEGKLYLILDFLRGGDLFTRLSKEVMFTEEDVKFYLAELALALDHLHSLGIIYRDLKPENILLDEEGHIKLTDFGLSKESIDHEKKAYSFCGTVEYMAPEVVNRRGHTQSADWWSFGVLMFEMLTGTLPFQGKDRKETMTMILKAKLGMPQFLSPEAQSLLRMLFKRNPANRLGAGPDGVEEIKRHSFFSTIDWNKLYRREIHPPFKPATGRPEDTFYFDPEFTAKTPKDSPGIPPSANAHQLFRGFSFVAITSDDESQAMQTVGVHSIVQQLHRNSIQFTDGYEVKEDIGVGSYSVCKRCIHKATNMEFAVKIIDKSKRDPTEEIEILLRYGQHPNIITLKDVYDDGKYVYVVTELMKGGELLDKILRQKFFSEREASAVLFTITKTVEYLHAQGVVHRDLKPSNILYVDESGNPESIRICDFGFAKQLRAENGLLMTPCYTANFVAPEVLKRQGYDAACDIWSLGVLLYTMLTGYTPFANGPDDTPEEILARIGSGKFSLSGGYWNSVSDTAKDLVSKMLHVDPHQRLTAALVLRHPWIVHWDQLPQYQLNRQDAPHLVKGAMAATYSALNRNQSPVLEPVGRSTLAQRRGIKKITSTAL
Sequence of Fibroblast growth factor receptor 3 (P22607 23-806 limits assumed): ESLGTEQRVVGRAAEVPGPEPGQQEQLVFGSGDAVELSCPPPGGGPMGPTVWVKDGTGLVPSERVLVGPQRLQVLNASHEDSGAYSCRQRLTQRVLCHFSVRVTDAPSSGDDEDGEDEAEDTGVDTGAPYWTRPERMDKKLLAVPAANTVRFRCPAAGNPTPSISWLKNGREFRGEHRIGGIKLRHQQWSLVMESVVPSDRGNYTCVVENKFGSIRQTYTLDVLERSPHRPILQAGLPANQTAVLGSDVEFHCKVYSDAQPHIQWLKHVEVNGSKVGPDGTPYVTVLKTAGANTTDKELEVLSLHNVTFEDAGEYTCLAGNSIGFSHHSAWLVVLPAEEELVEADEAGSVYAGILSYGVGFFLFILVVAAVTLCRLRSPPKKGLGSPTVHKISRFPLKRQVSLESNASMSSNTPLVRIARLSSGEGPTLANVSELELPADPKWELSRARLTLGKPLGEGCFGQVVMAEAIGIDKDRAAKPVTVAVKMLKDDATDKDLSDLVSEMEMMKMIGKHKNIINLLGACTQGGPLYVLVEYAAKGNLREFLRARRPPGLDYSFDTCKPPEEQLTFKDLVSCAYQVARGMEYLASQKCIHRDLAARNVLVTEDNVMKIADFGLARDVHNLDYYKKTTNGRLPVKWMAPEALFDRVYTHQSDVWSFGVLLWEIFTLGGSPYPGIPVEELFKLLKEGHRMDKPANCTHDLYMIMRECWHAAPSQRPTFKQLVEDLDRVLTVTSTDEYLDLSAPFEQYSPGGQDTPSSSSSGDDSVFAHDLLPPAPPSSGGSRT

Compound: O=C(NOC[C@H](O)CO)c1ccc(F)c(F)c1Nc1ccc(I)cc1F
% of control [1]: 88%

% of inhibition [2]: 24%
Compound: CC[C@@H](Nc1c(C#N)c(-c2ccc(-c3cccc(C)c3F)cc2)nc2cnccc12)C(=O)O [BAY-091]

% of inhibition [3]: 4%
Compound: Cc1ccc(-c2ccc3c(ccc4sc5c(c43)NC[C@@H](C)NC5=O)n2)cn1

% of inhibition [4]: 86%
Compound: CC[C@@H]1[C@H](F)C(=O)N[C@@H]1COc1nccc2cc(C(N)=O)c(OC)cc12 [ZIMLOVISERTIB]

Compound: Cc1cc(F)c(C(=O)Nc2cccc(-c3nncn3C(C)C)n2)cc1-n1cnc(C2CC2)c1
% of control [5]: 86%

Compound: COc1cc(Nc2nc(C)cc(-c3cnn4nc(OC)ccc34)n2)cc(C(F)(F)F)c1
% of control [6]: 70%

% of control [7]: 101%
Compound: CC(=O)Nc1cccc(-n2c(=O)n(C3CC3)c(=O)c3c(Nc4ccc(I)cc4F)n(C)c(=O)c(C)c32)c1

Compound: CN(C)CCOc1ccc(-c2nc(-c3ccncc3)c(-c3ccc4c(c3)CC/C4=N\O)[nH]2)cc1
% of control [8]: 100%

Compound: C=CC(=O)Nc1cc(-n2c(=O)ccc3cnc4ccc(-c5ccc(NS(C)(=O)=O)cc5)cc4c32)ccc1C
% of control ([9]; at 1 µM): 78%
% of control ([9]; at 10 µM): 18%

Compound: Nc1cnc(N2CCc3cc(S(=O)(=O)Nc4c(F)cc(Cl)cc4F)cc(N4CCCC4=O)c32)nc1 [TP-020n]
% of control [10]: 100%
% of control [11]: 100%

Compound: Cc1cc([C@@H](C)Nc2ccccc2C(=O)O)c2nc(N3CCOCC3)cc(=O)n2c1 [AZD-6482]
% of control [12]: 100%

Compound: N#Cc1cccc(-c2c[nH]c3ncnc(N4CCOCC4)c23)c1
% of inhibition [13]: 6%
% of control [14]: 100%
% of control [15]: 100%
